Reference: ChEMBL document CHEMBL1201862, “PubChem BioAssay data set” (2004)
Activity calls are given as the source filed them.

Assays:
Caspase-7 = Caspase-7 (Homo sapiens, UniProt P55210); assay: potency of procaspase-7 enzyme activation – biochemical, absorbance, human, dual procaspase-3/-7 activator project, dose response (AID 504330)
Protein RecA = target: T1, Protein RecA (Mycobacterium tuberculosis, UniProt P9WHJ3); assay: Fluorescence Cell-Free Homogeneous Dose Retest to Identify Inhibitors of RecA-Intein Splicing Activity. [Related pubchem assays (depositor defined):AID2097, AID2223, AID489010, AID492950]; type: functional
T1 sequence (P9WHJ3 whole entry): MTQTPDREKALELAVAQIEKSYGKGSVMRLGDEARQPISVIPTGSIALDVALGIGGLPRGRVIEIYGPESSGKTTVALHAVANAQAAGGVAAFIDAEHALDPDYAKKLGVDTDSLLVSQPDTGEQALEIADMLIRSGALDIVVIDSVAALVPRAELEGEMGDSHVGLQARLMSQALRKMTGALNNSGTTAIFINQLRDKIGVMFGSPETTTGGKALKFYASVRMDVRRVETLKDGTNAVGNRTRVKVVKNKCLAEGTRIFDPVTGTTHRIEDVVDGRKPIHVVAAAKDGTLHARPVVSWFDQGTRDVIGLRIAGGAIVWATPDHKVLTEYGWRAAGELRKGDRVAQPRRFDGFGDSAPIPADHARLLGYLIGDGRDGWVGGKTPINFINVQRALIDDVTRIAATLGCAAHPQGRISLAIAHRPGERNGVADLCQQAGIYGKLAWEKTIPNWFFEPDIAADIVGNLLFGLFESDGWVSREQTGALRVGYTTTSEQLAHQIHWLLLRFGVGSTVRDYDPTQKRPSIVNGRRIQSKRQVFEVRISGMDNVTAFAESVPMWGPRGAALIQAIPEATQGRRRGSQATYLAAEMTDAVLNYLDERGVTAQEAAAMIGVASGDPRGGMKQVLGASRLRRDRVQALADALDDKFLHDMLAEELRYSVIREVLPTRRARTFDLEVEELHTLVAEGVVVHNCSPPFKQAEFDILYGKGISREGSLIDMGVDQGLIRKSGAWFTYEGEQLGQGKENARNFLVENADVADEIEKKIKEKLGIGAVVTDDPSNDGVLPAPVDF

[1] = target: T2, Replicative DNA helicase DnaB (Mycobacterium tuberculosis, UniProt P9WMR3); assay: DnaB intein splicing inhibitors, dose response, biochemical, cell-free fluorescence (AID 449749); type: functional
T2 sequence (P9WMR3 whole entry): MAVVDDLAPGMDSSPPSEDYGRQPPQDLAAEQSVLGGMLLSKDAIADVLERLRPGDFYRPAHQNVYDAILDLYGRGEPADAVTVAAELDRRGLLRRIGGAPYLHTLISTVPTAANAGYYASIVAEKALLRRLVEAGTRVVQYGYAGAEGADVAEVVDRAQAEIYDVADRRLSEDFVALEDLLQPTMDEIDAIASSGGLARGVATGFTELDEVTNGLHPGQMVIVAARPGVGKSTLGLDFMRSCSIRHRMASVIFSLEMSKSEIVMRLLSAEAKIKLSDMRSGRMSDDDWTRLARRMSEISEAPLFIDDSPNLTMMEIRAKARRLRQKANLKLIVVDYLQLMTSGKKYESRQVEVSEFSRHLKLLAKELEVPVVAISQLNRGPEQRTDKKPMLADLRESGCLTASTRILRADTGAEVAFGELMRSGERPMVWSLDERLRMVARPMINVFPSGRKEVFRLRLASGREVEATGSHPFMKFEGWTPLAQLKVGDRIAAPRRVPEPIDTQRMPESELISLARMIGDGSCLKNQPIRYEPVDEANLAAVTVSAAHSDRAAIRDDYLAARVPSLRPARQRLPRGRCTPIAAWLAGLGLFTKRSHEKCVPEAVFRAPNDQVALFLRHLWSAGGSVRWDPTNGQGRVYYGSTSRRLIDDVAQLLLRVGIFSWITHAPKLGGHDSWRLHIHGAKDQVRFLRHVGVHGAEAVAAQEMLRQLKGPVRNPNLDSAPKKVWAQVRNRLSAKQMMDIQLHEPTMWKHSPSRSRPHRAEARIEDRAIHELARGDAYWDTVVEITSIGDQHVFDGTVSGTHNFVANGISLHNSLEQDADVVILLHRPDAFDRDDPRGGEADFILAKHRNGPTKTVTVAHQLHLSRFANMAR

Caspase-3 = target: T3, Caspase-3 (Homo sapiens, UniProt P42574); assay: activators of human procaspase-3 D3A mutant – biochemical, absorbance, PC-3 D3A mutant, counter-screen for dual procaspase-3/7 activator project, dose response (AID 504328)
T3 sequence (P42574 whole entry): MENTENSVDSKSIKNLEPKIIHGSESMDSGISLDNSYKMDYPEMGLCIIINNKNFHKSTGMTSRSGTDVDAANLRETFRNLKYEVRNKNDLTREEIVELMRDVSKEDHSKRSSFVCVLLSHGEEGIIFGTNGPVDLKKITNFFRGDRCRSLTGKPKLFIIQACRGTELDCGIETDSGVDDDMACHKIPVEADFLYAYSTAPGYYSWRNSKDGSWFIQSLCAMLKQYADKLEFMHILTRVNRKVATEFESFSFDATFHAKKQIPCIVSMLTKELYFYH

HeLa = assay: viability loss in HeLa cells – cell-based, 24 h, cherry-picked samples, cytotoxicity control, dose response (AID 504726); type: functional; details: Homo sapiens;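 also: potency for cytotoxicity as loss of luminescence signal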
[2] = target: T4, Heat shock 70 kDa protein 1A (Homo sapiens, UniProt P0DMV8); assay: small-molecule inhibition of Hsp70 – biochemical, TR-FRET (AID 786)
[3] = target: T5, Trace amine-associated receptor 1 (Homo sapiens, UniProt Q96RJ0); assay: Counterscreen for agonists of the human trace amine associated receptor 1 (hTAAR1): Fluorescence-based cell-based high throughput dose response assay to identify hTAAR1 agonist that also desensitize TAAR1 receptor response.; type: functional
T5 sequence (Q96RJ0 whole entry): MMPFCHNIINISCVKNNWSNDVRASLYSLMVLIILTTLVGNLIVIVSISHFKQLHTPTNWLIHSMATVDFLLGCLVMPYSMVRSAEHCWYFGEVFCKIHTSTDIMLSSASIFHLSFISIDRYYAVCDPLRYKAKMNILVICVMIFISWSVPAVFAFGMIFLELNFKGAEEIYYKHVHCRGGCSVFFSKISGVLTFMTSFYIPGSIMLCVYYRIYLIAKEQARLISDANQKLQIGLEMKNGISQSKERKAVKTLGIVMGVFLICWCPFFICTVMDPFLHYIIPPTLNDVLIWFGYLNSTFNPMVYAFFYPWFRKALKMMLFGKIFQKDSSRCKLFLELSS

[4] = target: Protein-tyrosine kinase 2-beta (Homo sapiens, UniProt Q14289);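 also: potency of inhibitors of PYK2 kinase phosphorylation of poly-GT substrate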
Bcl-2-like protein 10 = Bcl-2-like protein 10 (Homo sapiens, UniProt Q9HD36); assay: Bcl-B/TR3 peptide binding disruption – biochemical, fluorescence polarization, FITC-TR3 peptide, selectivity assay for Bfl-1 inhibitor project, primary screen (AID 748);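 also: fluorescence polarization from a fluorescein-labelled TR3 peptide binding purified Bcl-B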
[5] = target: T5, Trace amine-associated receptor 1; assay: Fluorescence-based cell-based high throughput dose response assay to identify agonists of the human trace amine associated receptor 1 (TAAR1).; type: functional
[6] = target: Mothers against decapentaplegic homolog 3 (Homo sapiens, UniProt P84022); assay: inhibitors of SMAD-driven TGF-beta signaling – dose response (AID 715); type: functional
[7] = target: T4, Heat shock 70 kDa protein 1A; assay: small molecules displacing fluorescent ligand from Hsp70 – biochemical, fluorescence polarization, primary screen (AID 583)
[8] = target: T6, Zinc finger protein mex-5 (Caenorhabditis elegans, UniProt Q9XUB2); assay: potency of MEX-5 RNA-binding blockers – biochemical, C. elegans, fluorescence polarization, dose response (AID 1960)
T6 sequence (Q9XUB2 whole entry): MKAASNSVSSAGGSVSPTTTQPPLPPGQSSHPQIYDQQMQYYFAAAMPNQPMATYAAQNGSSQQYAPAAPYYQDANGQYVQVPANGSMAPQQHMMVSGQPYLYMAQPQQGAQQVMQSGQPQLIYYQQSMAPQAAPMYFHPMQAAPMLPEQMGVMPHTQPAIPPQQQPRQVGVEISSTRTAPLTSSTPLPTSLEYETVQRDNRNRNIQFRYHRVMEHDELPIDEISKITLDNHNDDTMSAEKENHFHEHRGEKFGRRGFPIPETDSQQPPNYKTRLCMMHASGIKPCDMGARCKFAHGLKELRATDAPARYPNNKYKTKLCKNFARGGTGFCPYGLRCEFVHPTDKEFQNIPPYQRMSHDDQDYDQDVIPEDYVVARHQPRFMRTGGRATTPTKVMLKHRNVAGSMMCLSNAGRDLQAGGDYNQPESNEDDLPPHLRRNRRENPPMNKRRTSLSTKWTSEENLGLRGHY

[9] = target: T7, Dual specificity protein phosphatase 6 (Rattus norvegicus, UniProt Q64346); assay: inhibition of rat DUSP6 enzyme activity – biochemical, in vitro, primary screen (AID 425)
T7 sequence (Q64346 whole entry): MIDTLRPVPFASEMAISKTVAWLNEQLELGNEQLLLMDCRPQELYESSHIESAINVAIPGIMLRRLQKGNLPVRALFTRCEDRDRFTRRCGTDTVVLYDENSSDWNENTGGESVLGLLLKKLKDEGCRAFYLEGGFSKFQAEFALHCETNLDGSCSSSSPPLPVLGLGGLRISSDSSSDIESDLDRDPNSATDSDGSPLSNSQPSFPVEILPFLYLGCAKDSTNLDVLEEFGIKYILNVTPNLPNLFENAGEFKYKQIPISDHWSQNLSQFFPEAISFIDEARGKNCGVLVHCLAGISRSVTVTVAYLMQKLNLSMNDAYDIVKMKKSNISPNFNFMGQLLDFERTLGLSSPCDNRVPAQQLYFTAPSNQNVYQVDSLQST

Ephrin type-A receptor 4 = Ephrin type-A receptor 4 (Mus musculus, UniProt Q03137); assay: EphA4 ligand-binding antagonists – biochemical, colorimetric, mouse EphA4, primary screen (AID 689); type: functional
Cytochrome P450 2C9 = Cytochrome P450 2C9 (Homo sapiens, UniProt P11712)
cells [10] = type: functional, cell-based
cells [11] = type: functional, cell-based; remark: listed apart in the source
Estrogen receptor beta [12] = target: T8, Estrogen receptor beta (Homo sapiens, UniProt Q92731); assay: blockers of SRC-3 recruitment to ERβ – biochemical, ELISA, streptavidin-HRP readout, orthogonal assay, confirmation (AID 1060)
ORF 73 = ORF 73 (Human herpesvirus 8, UniProt O40947); assay: KSHV LANA DNA-binding disruption – biochemical, fluorescence polarization, cherry-picked samples, dose response (AID 504725); set-up: species or system Human gammaherpesvirus 8;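 also: fluorescence polarization of a labeled DNA duplex reporting LANA DNA binding; potency is for inhibitors that block LANA binding to the DNA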
[13] = target: Bifunctional protein GlmU (Mycobacterium tuberculosis, UniProt P9WMN3); assay: Inhibitors of Mycobacterial Glucosamine-1-phosphate acetyl transferase (GlmU). Secondary screen.; set-up: species or system Mycobacterium tuberculosis H37Rv
[14] = target: DNA (cytosine-5)-methyltransferase 1 (Homo sapiens, UniProt P26358); assay: inhibition of DNA methylation by DNMT1 – biochemical, fluorescent molecular beacon, confirmation (AID 602386); type: functional
Estrogen receptor beta [15] = target: T8, Estrogen receptor beta
[16] = target: T9, RNA-binding protein pos-1 (Caenorhabditis elegans, UniProt G5EF15); assay: disruptors of C. elegans POS-1 RNA interaction – biochemical, fluorescence polarization, dose response (AID 1964);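 also: purified POS-1 fused to maltose binding protein made in E. coli; potency of compounds blocking POS-1 binding to fluorescent RNA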
T9 sequence (G5EF15 whole entry): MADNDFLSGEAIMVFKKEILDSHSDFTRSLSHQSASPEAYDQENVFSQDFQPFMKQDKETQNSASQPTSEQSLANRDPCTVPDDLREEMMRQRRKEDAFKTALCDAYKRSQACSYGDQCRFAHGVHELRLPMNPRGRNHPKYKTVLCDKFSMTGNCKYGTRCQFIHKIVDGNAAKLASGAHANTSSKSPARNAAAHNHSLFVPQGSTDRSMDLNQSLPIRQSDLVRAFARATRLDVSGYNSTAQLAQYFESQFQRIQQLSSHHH

T8 sequence (Q92731 whole entry): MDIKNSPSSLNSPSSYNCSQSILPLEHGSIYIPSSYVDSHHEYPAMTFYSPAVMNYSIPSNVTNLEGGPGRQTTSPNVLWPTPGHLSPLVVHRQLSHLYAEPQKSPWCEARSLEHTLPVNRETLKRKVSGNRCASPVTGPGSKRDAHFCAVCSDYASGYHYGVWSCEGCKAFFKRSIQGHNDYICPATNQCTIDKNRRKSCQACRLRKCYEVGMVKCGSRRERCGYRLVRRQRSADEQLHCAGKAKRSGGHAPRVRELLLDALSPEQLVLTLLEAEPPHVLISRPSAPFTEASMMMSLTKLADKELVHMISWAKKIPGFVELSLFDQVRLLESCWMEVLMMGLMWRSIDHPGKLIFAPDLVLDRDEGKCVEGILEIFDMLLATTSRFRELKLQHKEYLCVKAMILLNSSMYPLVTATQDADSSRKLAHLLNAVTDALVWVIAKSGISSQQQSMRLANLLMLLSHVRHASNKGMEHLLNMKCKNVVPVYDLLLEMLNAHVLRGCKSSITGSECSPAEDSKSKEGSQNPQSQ
T4 sequence (P0DMV8 whole entry): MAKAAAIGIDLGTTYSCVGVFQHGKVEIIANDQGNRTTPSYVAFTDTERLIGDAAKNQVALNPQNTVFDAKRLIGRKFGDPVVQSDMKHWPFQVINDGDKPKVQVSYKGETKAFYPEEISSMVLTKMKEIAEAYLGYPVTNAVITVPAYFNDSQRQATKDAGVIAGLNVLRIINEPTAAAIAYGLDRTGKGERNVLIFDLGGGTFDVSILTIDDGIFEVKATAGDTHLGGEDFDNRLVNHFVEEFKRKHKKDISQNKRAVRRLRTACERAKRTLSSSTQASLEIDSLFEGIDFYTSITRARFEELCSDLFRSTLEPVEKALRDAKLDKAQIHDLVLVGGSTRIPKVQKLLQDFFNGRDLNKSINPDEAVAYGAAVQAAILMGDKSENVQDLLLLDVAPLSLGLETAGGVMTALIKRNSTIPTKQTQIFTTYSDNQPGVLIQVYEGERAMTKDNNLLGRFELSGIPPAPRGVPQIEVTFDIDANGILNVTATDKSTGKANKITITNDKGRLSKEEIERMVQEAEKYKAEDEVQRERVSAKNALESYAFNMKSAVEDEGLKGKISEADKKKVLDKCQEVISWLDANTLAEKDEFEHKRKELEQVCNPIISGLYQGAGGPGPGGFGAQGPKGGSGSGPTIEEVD
Chain of Mothers against decapentaplegic homolog 3 (P84022 whole entry): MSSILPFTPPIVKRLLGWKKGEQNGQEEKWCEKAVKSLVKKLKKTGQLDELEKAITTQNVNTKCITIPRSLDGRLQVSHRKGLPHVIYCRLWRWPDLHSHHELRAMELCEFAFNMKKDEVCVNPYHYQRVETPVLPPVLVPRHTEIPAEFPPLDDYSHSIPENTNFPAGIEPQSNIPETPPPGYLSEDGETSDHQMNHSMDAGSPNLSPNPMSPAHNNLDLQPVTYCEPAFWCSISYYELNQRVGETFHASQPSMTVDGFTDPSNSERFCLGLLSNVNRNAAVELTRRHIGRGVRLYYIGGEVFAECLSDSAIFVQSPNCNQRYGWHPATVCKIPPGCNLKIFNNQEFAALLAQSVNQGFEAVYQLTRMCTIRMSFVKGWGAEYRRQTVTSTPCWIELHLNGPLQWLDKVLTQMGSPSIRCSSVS
Chain of Cytochrome P450 2C9 (P11712 whole entry): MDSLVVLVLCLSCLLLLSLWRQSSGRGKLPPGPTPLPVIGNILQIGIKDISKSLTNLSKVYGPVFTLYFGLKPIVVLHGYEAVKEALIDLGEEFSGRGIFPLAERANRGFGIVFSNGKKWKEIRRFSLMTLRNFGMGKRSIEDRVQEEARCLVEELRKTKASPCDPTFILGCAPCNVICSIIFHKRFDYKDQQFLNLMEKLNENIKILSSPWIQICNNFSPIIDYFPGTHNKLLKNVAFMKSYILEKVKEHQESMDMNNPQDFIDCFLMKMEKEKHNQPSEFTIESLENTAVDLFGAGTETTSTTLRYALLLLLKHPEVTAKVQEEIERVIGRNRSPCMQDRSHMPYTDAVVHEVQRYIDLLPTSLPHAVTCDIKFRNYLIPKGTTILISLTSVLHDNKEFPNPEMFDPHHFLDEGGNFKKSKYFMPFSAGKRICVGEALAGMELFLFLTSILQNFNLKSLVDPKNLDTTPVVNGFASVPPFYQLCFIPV
Chain of ORF 73 (O40947 whole entry): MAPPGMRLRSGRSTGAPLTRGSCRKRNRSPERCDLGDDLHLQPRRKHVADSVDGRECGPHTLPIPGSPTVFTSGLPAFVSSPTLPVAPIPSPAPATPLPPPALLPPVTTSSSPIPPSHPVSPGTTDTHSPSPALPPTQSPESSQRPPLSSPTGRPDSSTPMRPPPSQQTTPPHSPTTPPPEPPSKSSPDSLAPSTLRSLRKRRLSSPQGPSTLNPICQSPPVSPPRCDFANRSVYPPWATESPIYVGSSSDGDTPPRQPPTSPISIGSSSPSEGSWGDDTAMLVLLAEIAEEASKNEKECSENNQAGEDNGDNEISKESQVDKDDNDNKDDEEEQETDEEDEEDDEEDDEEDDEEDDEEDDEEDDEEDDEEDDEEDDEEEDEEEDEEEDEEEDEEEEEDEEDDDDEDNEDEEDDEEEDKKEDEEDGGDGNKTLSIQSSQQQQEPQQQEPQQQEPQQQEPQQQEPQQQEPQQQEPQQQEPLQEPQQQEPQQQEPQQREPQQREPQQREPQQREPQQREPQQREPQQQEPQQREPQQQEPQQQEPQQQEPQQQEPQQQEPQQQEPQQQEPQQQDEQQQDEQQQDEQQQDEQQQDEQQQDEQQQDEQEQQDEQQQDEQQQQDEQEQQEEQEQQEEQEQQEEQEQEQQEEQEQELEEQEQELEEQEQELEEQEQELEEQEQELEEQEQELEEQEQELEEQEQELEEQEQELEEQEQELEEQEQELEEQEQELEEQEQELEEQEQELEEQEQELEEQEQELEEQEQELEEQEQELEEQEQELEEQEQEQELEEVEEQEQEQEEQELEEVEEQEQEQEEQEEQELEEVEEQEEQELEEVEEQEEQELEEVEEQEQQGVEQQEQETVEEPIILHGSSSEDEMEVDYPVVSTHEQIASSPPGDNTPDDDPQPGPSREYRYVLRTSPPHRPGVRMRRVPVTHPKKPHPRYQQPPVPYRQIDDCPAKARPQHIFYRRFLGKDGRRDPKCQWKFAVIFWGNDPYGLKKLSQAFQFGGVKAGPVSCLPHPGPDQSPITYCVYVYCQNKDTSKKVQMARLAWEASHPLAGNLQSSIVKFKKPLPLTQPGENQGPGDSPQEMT
Chain of Ephrin type-A receptor 4 (Q03137 whole entry): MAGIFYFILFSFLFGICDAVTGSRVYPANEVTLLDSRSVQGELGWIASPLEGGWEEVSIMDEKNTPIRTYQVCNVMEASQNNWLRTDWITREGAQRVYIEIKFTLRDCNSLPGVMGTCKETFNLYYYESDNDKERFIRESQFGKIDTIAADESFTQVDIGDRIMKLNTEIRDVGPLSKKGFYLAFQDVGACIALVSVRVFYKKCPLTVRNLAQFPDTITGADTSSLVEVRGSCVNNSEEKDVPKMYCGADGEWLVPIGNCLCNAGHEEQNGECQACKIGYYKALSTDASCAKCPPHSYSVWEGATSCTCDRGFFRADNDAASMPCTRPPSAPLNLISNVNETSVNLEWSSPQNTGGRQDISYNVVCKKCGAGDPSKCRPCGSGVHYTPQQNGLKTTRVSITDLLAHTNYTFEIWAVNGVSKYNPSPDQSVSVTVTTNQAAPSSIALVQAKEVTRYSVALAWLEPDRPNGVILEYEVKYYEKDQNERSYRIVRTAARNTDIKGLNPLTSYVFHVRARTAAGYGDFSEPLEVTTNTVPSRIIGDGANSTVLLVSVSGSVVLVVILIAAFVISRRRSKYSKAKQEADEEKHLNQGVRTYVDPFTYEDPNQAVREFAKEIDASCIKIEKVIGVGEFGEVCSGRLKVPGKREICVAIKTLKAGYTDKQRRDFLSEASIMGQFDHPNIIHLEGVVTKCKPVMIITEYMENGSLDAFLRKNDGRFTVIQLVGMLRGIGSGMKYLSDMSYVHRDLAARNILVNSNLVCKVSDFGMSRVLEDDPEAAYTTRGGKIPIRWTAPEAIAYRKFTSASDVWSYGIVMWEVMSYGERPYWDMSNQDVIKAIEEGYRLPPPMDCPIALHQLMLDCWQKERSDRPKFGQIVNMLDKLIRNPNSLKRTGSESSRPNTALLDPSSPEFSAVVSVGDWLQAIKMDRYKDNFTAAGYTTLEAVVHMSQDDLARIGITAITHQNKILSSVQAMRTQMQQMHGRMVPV
Chain of Bcl-2-like protein 10 (Q9HD36 whole entry): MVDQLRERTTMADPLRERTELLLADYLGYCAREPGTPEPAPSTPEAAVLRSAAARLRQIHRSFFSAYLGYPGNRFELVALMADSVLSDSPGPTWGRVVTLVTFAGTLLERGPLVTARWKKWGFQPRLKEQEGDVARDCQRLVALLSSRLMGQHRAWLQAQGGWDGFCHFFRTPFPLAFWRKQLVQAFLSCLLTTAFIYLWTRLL
Chain of Bifunctional protein GlmU (P9WMN3 whole entry): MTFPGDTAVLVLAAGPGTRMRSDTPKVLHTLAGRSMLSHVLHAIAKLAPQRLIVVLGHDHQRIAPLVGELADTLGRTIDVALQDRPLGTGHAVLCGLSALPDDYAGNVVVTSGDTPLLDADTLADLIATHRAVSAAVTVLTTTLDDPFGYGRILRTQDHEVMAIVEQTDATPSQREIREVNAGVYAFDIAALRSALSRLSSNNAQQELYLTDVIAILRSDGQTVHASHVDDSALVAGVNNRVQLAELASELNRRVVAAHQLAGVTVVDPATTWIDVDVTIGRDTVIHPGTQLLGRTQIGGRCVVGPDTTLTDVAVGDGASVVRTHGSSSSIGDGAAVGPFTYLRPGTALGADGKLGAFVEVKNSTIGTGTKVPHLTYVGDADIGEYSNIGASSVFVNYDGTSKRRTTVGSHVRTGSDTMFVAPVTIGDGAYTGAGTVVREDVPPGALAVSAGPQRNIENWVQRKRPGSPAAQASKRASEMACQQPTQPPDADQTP

Cc1n[nH]c2c1C(c1c[nH]c3ccccc13)C(C#N)=C(N)O2 (centres undefined)
EC50 (Caspase-7): 27.8 µM (inactive)
EC50 (Protein RecA): 2.03 µM (active)
AC50 [1]: 3.79 µM (active)
EC50 (Caspase-3): 23.1 µM (inactive)

CC1(C)CCCN(C(=O)c2coc(=O)c(Br)c2)C1
AC50 (HeLa): 96.3 µM (active)
IC50 [2]: 8.32 µM (active)
IC50 [3]: 2.41 µM (active)
IC50 [4]: 5.23 µM (active)
IC50 (Bcl-2-like protein 10): 6.54 µM (active)
EC50 [5]: 0.827 µM (active)
IC50 [6]: 14 µM (active)
IC50 [7]: 13.1 µM (active)
EC50 [8]: 68.3 µM (active)
IC50 [9]: > 10 µM (not active)
IC50 (Ephrin type-A receptor 4): 8.98 µM (active)
AC50 (Cytochrome P450 2C9): 28.2 µM (inconclusive)
EC50 (cells [10]): > 29.9 µM (inactive)
IC50 (cells [11]): > 29.9 µM (inactive)
IC50 (Estrogen receptor beta [12]): 93.2 µM (not active)
AC50 (ORF 73): 71.2 µM (active)
IC50 [13]: 21.2 µM (active)
IC50 [14]: 2.92 µM (active)
IC50 (Estrogen receptor beta [15]): < 1.56 µM (active)
EC50 [16]: > 300 µM (not active)
